system: Escherichia coli strain ATCC25922; test: standard microdilution assay to determine minimum inhibitory concentrations (MICs); type: cell-based; conditions: Escherichia coli strain ATCC25922, microdilution
Procedure: Minimum inhibitory concentrations (MICs) are determined by the microdilution method, typically in a final volume of 100 microliters, according to protocols outlined by The Clinical and Laboratory Standards Institute [CLSI; formerly the National Committee for Clinical Laboratory Standards (NCCLS)]. See CLSI: Methods for dilution antimicrobial susceptibility tests for bacteria that grow aerobically; approved standard-fifth edition. Wayne, Pa.: NCCLS; 2000. The assays can be also be performed in microtiter trays according to conventional methodologies as published by the CLSI. See CLSI. Methods for Dilution Antimicrobial Susceptibility Tests for Bacteria That Grow Aerobically; Approved Standard—Seventh Edition. CLSI Document M7-A7 [ISBN 1-56238-587-9] CLSI, 940 West Valley Road, Suite 1400, Wayne Pa. 19087-1898 USA, 2006).
The compounds of the present invention were tested for antimicrobial activity. The compounds were run against Escherichia coli strain ATCC25922 using a standard microdilution assay to determine minimum inhibitory concentrations (MICs). […] A “N/A” means that data is unavailable. It will be recognized by one skilled in the art that the compounds can be assessed against other bacterial organisms and that the presentation of data for activity against Escherichia coli is illustrative and in no way is intended to limit the scope of the present invention. The compounds of the present invention can be assayed against a range of other microorganisms depending upon the performance activity desired to be gathered. Furthermore, the “+”, “−”, and “N/A” representation and the selection of a cutoff value of 16 micrograms/ml is also illustrative and in no way is intended to limit the scope of the present invention.

Row | SMILES | E. coli ATCC25922 MIC
1 | N=C(N)N[C@@H]1CCN(Cc2ccc(-n3cc4cc(-c5ccc(S(=O)(=O)N(CCCN6CCCCC6)C6CCNCC6)cc5)[nH]c4nc3=O)cc2)C1 [Compound 1201] | + (a “+” indicates that the compound has an MIC value of 16 micrograms/ml or less)
2 | N=C(N)NCCCNCc1ccc(-n2cc3cc(-c4ccc(S(=O)(=O)N(CCOc5ccc(F)cc5)C5CCNCC5)cc4)[nH]c3nc2=O)cc1 [Compound 770] | + (a “+” indicates that the compound has an MIC value of 16 micrograms/ml or less)
3 | CC(=O)NCCc1cc(OCC(F)CN)cc(-c2cc3cn(-c4ccc(CNCCCNC(=N)N)cc4)c(=O)nc3[nH]2)c1 (stereo not shown) [Compound 2032a] | − (a “−” indicates that the compound has an MIC value greater than 16 micrograms/ml)
4 | NC(N)=NCCCNCc1ccc(-n2cc3cc(-c4ccc(S(=O)(=O)NC5CCNCC5)cc4)oc3nc2=O)cc1 [Compound 1242] | + (a “+” indicates that the compound has an MIC value of 16 micrograms/ml or less)
5 | CN(C)Cc1ccc(-n2cc3cc(-c4ccc(S(=O)(=O)N(Cc5ccc(Cl)c(Cl)c5)C5CCNCC5)cc4)[nH]c3nc2=O)cc1 [Compound 983] | − (a “−” indicates that the compound has an MIC value greater than 16 micrograms/ml)
6 | N=C(N)NC[C@H](N)C(=O)NCc1ccc(-n2cc3cc(-c4ccc(S(=O)(=O)NC5CCNCC5)cc4)[nH]c3nc2=O)cc1 [Compound 1228] | + (a “+” indicates that the compound has an MIC value of 16 micrograms/ml or less)
7 | N=C(N)NCCCNCc1ccc(-n2cc3cc(-c4cc(CNCC(F)(F)F)cc(N5CCNCC5)c4)[nH]c3nc2=O)cc1 [Compound 1040] | + (a “+” indicates that the compound has an MIC value of 16 micrograms/ml or less)
8 | N=C(N)NCCCNCc1ccc(-n2cc3cc(-c4cccc(CCCCN)c4)[nH]c3nc2=O)cc1 [Compound 1380] | + (a “+” indicates that the compound has an MIC value of 16 micrograms/ml or less)
9 | N=C(N)NCCCNCc1ccc(-n2cc3cc(CCS(=O)(=O)N(CCCc4ccccc4)C4CCNCC4)[nH]c3nc2=O)cc1 [Compound 990] | + (a “+” indicates that the compound has an MIC value of 16 micrograms/ml or less)
10 | N=C(N)NCCCNCc1ccc(-n2cc3cc(-c4cc(C(=O)Nc5cc(F)cc(F)c5)cc(N5CCNCC5)c4)[nH]c3nc2=O)cc1 [Compound 978] | + (a “+” indicates that the compound has an MIC value of 16 micrograms/ml or less)
11 | N=C(N)NCCCNCc1ccc(-n2cc3cc(C4CCCN(CCCN5CCOCC5)C4)[nH]c3nc2=O)cc1 (stereo not shown) [Compound 2044a] | + (a “+” indicates that the compound has an MIC value of 16 micrograms/ml or less)
12 | NCCCCOc1ccc(-c2cn3cc(-c4ccc(S(=O)(=O)NC5CCNCC5)cc4)[nH]c3nc2=O)cc1 [Compound 824] | − (a “−” indicates that the compound has an MIC value greater than 16 micrograms/ml)
13 | N#CCCCN(C1CCNCC1)S(=O)(=O)c1ccc(-c2cc3cn(-c4ccc(CNCCCNC(=N)N)cc4)c(=O)nc3[nH]2)cc1 [Compound 842] | + (a “+” indicates that the compound has an MIC value of 16 micrograms/ml or less)
14 | N=C(N)NCCCNCc1ccc(-n2cc3cc(-c4cc(OC(F)(F)F)cc(S(=O)(=O)NCCN)c4)[nH]c3nc2=O)cc1 [Compound 2059a] | + (a “+” indicates that the compound has an MIC value of 16 micrograms/ml or less)
15 | N=C(N)NCCCN1CC=C(n2cc3cc(-c4ccc(S(=O)(=O)N(Cc5ccc6nonc6c5)C5CCNCC5)cc4)[nH]c3nc2=O)CC1 [Compound 1004] | + (a “+” indicates that the compound has an MIC value of 16 micrograms/ml or less)
16 | CN(C)Cc1ccc(-n2cc3cc(-c4ccc(S(=O)(=O)N(CC5CC5)C5CCNCC5)cc4)[nH]c3nc2=O)cc1 [Compound 1001] | − (a “−” indicates that the compound has an MIC value greater than 16 micrograms/ml)
17 | Cc1cc([N+](=O)[O-])nn1CCCN(C1CCNCC1)S(=O)(=O)c1ccc(-c2cc3cn(-c4ccc(CNCCCNC(=N)N)cc4)c(=O)nc3[nH]2)cc1 [Compound 998] | + (a “+” indicates that the compound has an MIC value of 16 micrograms/ml or less)
18 | N=C(N)N[C@@H]1CCN(Cc2ccc(-n3cc4cc(-c5ccc(S(=O)(=O)N(CCCn6cnnc6)C6CCNCC6)cc5)[nH]c4nc3=O)cc2)C1 [Compound 1219] | − (a “−” indicates that the compound has an MIC value greater than 16 micrograms/ml)
19 | N=C(N)NCCCN1CC=C(n2cc3cc(-c4ccc(S(=O)(=O)N(Cc5ccc(Cl)c(Cl)c5)C5CCNCC5)cc4)[nH]c3nc2=O)CC1 [Compound 966] | + (a “+” indicates that the compound has an MIC value of 16 micrograms/ml or less)
20 | CN(CCCO)C(=O)c1cc(-c2cc3cn(-c4ccc(CNCCCNC(=N)N)cc4)c(=O)nc3[nH]2)cc(N2CCNCC2)c1 [Compound 940] | + (a “+” indicates that the compound has an MIC value of 16 micrograms/ml or less)
21 | N=C(N)NCCCNCc1ccc(-n2cc3cc(-c4cc(C(=O)N5CCN(CCO)CC5)cc(N5CCNCC5)c4)[nH]c3nc2=O)cc1 [Compound 861] | − (a “−” indicates that the compound has an MIC value greater than 16 micrograms/ml)
22 | N=C(N)NCCCNC(c1ccc(-n2cc3cc(-c4ccc(S(=O)(=O)NC5CCNCC5)cc4)[nH]c3nc2=O)cc1)C(F)(F)F (stereo not shown) [Compound 1015] | + (a “+” indicates that the compound has an MIC value of 16 micrograms/ml or less)
23 | N=C(N)NCCCNCc1ccc(-n2cc3cc(-c4ccc(S(=O)(=O)N(CCCc5c[nH]nc5C(F)(F)F)C5CCNCC5)cc4)[nH]c3nc2=O)cc1 [Compound 897] | + (a “+” indicates that the compound has an MIC value of 16 micrograms/ml or less)
24 | N=C(N)NCCCNCc1ccc(-n2cc3cc(-c4ccc(S(=O)(=O)N(CCCc5cc(-c6ccccc6)n[nH]5)C5CCNCC5)cc4)[nH]c3nc2=O)cc1 [Compound 1175] | + (a “+” indicates that the compound has an MIC value of 16 micrograms/ml or less)
25 | N=C(N)NCCCNCC(Cn1cc2cc(-c3ccc(S(=O)(=O)NC4CCNCC4)cc3)[nH]c2nc1=O)OCc1ccc(F)c(F)c1 (stereo not shown) [Compound 1089] | − (a “−” indicates that the compound has an MIC value greater than 16 micrograms/ml)
26 | CN1CCN(CCOc2cc(-n3cc4cc(-c5ccc(S(=O)(=O)NC6CCNCC6)cc5)[nH]c4nc3=O)ccc2C(=O)NCCCNC(=N)N)CC1 [Compound 1152] | − (a “−” indicates that the compound has an MIC value greater than 16 micrograms/ml)
27 | NCc1ccc(-n2cc3cc(-c4ccc(S(=O)(=O)N(CCCn5ccc(C(F)(F)F)n5)C5CCNCC5)cc4)[nH]c3nc2=O)cc1 [Compound 1002] | − (a “−” indicates that the compound has an MIC value greater than 16 micrograms/ml)
28 | N=C(N)NCCCNCc1ccc(-n2cc3cc(-c4ccc(S(=O)(=O)CCN)cc4)[nH]c3nc2=O)cc1 [Compound 1130] | + (a “+” indicates that the compound has an MIC value of 16 micrograms/ml or less)
29 | NCCCNCc1ccc(-n2cc3cc(-c4cc(CN5CCS(=O)(=O)CC5)cc(N5CCNCC5)c4)[nH]c3nc2=O)cc1 [Compound 914] | − (a “−” indicates that the compound has an MIC value greater than 16 micrograms/ml)

same assay, conditions: Escherichia coli, ATCC25922, Escherichia coli strain ATCC25922, microdilution; read-out: E. coli ATCC25922 MIC

Row | MIC | SMILES
30 | > 16 µg/mL | NCc1ccc(-n2cc3cc(-c4cccc(S(=O)(=O)N(CCn5cccn5)C5CCNCC5)c4)[nH]c3nc2=O)cc1 [Compound 1174]
31 | > 16 µg/mL | NCCCNCc1ccc(-n2cc3cc(-c4ccc(C(F)(F)F)cc4)[nH]c3nc2=O)cc1 [Compound 611]
32 | > 16 µg/mL | NCCCOc1ccccc1-c1cc2cn(-c3ccc(CN)cc3)c(=O)nc2[nH]1 [Compound 1106]
33 | > 16 µg/mL | O=c1nc2[nH]c3ccccc3c2cn1C1CCNC1 (stereo not shown) [Compound 597]
34 | < 16 µg/mL | NCCCNCc1ccc(-c2cn3cc(-c4ccc(S(=O)(=O)N5CCNCC5)cc4)[nH]c3nc2=O)cc1 [Compound 789]
35 | > 16 µg/mL | NCc1ccc(-n2cc3cc(-c4cccc(S(=O)(=O)N(CCn5ccnc5)C5CCNCC5)c4)[nH]c3nc2=O)cc1 [Compound 1157]
36 | > 16 µg/mL | O=c1nc2[nH]c3ccccc3c2cn1C1CNC1 [Compound 591]
37 | > 16 µg/mL | NCCCNCc1ccc(-n2cc3cc(CC4CCCCC4)[nH]c3nc2=O)cc1 [Compound 622]
38 | > 16 µg/mL | NCCCNCc1ccc(-c2cn3cc(-c4ccc(C(=O)NC5CCOCC5)cc4)[nH]c3nc2=O)cc1 [Compound 799]
39 | > 16 µg/mL | NCCCNCc1ccc(-c2cn3cc(-c4ccc(C(=O)NN5CCOCC5)cc4)[nH]c3nc2=O)cc1 [Compound 723]
40 | < 16 µg/mL | CN1CCN(c2cccc(-c3cc4cn(-c5ccc(CNCCCNC(=N)N)cc5)c(=O)nc4[nH]3)c2)CC1 [Compound 678]
41 | > 16 µg/mL | N=C(N)NCCCNCc1ccc(-n2cc3cc(-c4cccc(OCCCO)c4)[nH]c3nc2=O)cc1 [Compound 1110]
42 | > 16 µg/mL | NCc1ccc(-n2cc3cc(-c4cccc(OCCCO)c4)[nH]c3nc2=O)cc1 [Compound 1099]

Row | SMILES | MIC
43 | N=C(N)NCCCN(CCCN)Cc1ccc(-n2cc3cc(-c4ccc(C(=O)NC5CN6CCC5CC6)cc4)[nH]c3nc2=O)cc1 (stereo not shown) [Compound 216] | < 16 µg/mL

— patent US9193731B2, “Antimicrobial compounds and methods of making and using the same” (Melinta Therapeutics, Inc., priority 2009, dated 2015)
